Test results as given in patent US7345049B2, “Phenylalanine derivatives” (Ajinomoto Co., Inc., priority 2003, dated 2008).
Where a name gives a salt, the structure may show the parent alone.

Target: T1, VCAM-1/α4β1 integrin binding (Homo sapiens, UniProt P05556+P13612)
T1 construct: Jurkat (ATCC TIB-152), known to express integrin α4β1; endogenous in cells; host or cells: Jurkat (ATCC TIB-152)
Assay: Assay of antagonistic activity to VCAM-1/α4β1 integrin binding under the existence of blood serum (Jurkat cell adhesion to VCAM-1/Fc)
Type: cell-based
Details: Jurkat cells, recombinant human VCAM-1/Fc, 50% human blood serum
Protocol: Assay of Antagonistic Activity to VCAM-1/α4β1 Integrin Binding Under the Existence of Blood Serum
The capacity of a test substance antagonistic to the binding of cell strain of human T cells, Jurkat (ATCC TIB-152), known to express integrin α4β1, to VCAM-1 was determined.
Fifty μl/well of a solution (500 ng/ml) of recombinant human VCAM-1/Fc (R & D systems) diluted with buffer A (0.1 M NaHCO3, pH 9.6) was added to a 96-well microtiter plate (Nunc Maxisorp). After the incubation at 4° C. overnight and washing once with PBS, a buffer (buffer B) obtained by diluting Block Ace (Snow Brand Milk Products Co., Ltd.) with PBS to ½ concentration was added in an amount of 150 μl/well. After the incubation at room temperature for 2 hours, buffer B was removed and the plate was washed with PBS once.
Jurkat cells were washed with Dulbecco modified Eagle medium (SIGMA, hereinafter referred to as “DMEM”) once. Then, the cells were again suspended in a binding buffer (DMEM containing 20 mM HEPES, 0.1% BSA, 2 mM MnCl2 and 50% human blood serum (Sigma)) to become 1×10^6 cells/mL.
Sixty μl of a test substance of various concentrations obtained by the dilution with the binding buffer was added to a round-bottom, 96-well plate (IWAKI). Immediately thereafter, 60 μl of the Jurkat cells (1×10^6 cells/ml) were added thereto and shaken on a plate shaker (IKA-Labortechnik, IKA-SCHUTTLER MTS-4) at 1000 rpm for 10 seconds. In 120 μL of the cell suspension to which the test substance was added, each 100 μL thereof was transferred on the VCAM-1/Fc-coated plate and incubated in dark place at room temperature for 60 minutes. After the shaking on the plate shaker at 1000 rpm for 30 seconds, the solution was immediately removed. Then, the unbound cells were removed by washing them with PBS once. A buffer C (PBS containing 0.82% Triton X-100) was added to the plate in an amount of 70 μL/well. After the shaking on the plate shaker at 1000 rpm for 5 minutes, the bound Jurkat cells were lysed. After centrifuging the cells on a plate centrifuge (SIGMA 4-15C) at room temperature at 2500 rpm for 5 minutes, 50 μL of supernatant thereof was transferred to a 96-well microtiter plate (Nunc Maxisorp). Each 50 μL of Substrate Buffer (Promega, CytoTox 96 Non-Radioactive Cytotoxicity Assay) was added thereto, shaken on a plate shaker at 1000 rpm for 10 seconds and reacted in dark place at room temperature for 30 minutes. Then, each 50 μL of Stop Solution (Promega, CytoTox 96 Non-Radioactive Cytotoxicity Assay) was added thereto and shaken on a plate shaker at 1000 rpm for 10 seconds. […] The absorbance thus obtained detects an activity of lactate dehydrogenase (LDH) dissolved in the supernatant of each well. Namely, the absorbance is proportional to the number of remaining Jurkat cells on the plate via the binding to VCAM-1. The test was conducted in duplicate and the binding rate of each test substance in various concentrations was determined while the absorbance of the test substance-free well was determined to be 100% and the absorbance of the Jurkat-cell-free well was determined to be 0%. The concentration for the 50% inhibition of binding, IC50, was calculated.

T1 sequence (P13612 34-1032): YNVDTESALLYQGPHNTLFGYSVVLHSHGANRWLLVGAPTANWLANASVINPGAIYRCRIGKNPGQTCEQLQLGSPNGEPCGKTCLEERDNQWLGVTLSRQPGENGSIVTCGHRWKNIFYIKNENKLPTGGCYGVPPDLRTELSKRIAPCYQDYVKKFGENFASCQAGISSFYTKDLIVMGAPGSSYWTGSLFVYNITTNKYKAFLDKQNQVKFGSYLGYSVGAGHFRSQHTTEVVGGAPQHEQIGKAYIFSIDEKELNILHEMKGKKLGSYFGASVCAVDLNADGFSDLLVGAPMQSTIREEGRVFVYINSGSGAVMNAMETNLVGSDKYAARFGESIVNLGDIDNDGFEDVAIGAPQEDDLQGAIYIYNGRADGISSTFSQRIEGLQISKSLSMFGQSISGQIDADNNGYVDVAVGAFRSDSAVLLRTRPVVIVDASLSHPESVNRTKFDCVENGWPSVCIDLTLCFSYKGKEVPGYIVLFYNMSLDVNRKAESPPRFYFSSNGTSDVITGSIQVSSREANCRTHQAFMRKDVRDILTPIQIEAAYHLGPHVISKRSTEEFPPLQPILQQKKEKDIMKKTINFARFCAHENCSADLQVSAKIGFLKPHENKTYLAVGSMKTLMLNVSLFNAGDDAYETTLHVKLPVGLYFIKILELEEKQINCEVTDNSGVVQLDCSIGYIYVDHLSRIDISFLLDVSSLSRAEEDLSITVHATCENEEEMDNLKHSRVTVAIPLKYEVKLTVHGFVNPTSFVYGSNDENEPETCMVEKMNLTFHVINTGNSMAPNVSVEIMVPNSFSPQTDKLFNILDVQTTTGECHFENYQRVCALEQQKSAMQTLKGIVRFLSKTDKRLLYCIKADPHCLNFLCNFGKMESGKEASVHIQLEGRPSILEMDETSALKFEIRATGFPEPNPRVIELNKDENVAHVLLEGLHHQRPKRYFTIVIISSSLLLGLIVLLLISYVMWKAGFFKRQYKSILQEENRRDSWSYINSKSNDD
T1 sequence (P05556 21-798): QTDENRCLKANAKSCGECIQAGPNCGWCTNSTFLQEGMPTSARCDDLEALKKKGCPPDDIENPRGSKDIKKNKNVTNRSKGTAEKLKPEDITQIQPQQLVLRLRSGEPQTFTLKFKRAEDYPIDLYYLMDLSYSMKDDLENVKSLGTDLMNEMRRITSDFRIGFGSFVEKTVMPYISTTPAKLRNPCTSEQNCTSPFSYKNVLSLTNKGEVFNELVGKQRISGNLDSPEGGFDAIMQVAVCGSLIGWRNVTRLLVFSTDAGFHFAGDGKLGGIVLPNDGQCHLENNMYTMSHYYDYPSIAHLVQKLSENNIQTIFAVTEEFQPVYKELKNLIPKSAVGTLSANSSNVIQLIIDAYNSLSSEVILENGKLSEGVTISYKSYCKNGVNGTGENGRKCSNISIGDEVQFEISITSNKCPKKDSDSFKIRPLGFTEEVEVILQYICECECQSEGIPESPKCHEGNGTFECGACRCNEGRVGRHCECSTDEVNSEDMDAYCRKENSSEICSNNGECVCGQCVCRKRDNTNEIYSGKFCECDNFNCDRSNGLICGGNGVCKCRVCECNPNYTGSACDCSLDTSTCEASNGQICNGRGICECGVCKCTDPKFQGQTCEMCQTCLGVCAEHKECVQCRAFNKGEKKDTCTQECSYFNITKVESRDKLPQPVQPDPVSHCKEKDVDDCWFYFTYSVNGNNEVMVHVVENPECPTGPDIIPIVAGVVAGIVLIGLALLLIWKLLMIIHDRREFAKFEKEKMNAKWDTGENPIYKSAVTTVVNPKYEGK

Row | IC50 [nM] | Compound
1 | 1.7 | Cn1c(=O)n(-c2ccc(CC(NC(=O)c3c(Cl)cccc3Cl)C(=O)O)cc2)c(=O)c2cc(N3CCOCC3)ccc21 (centres unmarked) [Example 1]
2 | 23.3 | Cn1c(=O)n(-c2ccc(C[C@H](NC(=O)c3c(Cl)cccc3Cl)C(=O)O)cc2)c(=O)c2cc(CN3CCOCC3)ccc21 [Example 53]
3 | 6.9 | CC(C)NCc1ccc2c(c1)c(=O)n(-c1ccc(C[C@H](NC(=O)c3c(Cl)cccc3Cl)C(=O)O)cc1)c(=O)n2C [Example 194]
4 | 18 | CC(C)N(C)Cc1ccc2c(c1)c(=O)n(-c1ccc(C[C@H](NC(=O)c3c(Cl)cccc3Cl)C(=O)O)cc1)c(=O)n2C [Example 199]
5 | 22.9 | CN1CCN(c2ccc3c(c2)c(=O)n(-c2ccc(C[C@H](NC(=O)c4c(Cl)cccc4Cl)C(=O)O)cc2)c(=O)n3C)CC1 [Example 2]
6 | 16.6 | Cn1c(=O)n(-c2ccc(C[C@H](NC(=O)c3c(Cl)cccc3Cl)C(=O)O)cc2)c(=O)c2cc(CN3CCCCC3)ccc21 [Example 57]
7 | 3.8 | CCCNCc1ccc2c(=O)n(-c3ccc(C[C@H](NC(=O)c4c(Cl)cccc4Cl)C(=O)O)cc3)c(=O)n(C)c2c1 [Example 145, N-(2,6-dichlorobenzoyl)-4-[1-methyl-7-propylaminomethyl-2,4-quinazoline-dione-3-yl]-L-phenylalanine]
8 | 9.4 | Cc1nccn1-c1cc2c(cc1F)c(=O)n(-c1ccc(C[C@H](NC(=O)c3c(Cl)cccc3Cl)C(=O)O)cc1)c(=O)n2C [Example 160]
9 | 12.3 | Cn1c(=O)n(-c2ccc(C[C@H](NC(=O)c3c(Cl)cccc3Cl)C(=O)O)cc2)c(=O)c2cnccc21 [Example 64]
10 | 5.8 | CCN(CC)CCN(C)c1cc2c(cc1F)c(=O)n(-c1ccc(C[C@H](NC(=O)c3c(Cl)cccc3Cl)C(=O)O)cc1)c(=O)n2C [Example 14]
11 | 11.7 | Cn1ncc2c(=O)n(-c3ccc(C[C@H](NC(=O)c4c(Cl)cccc4Cl)C(=O)O)cc3)c(=O)n(C)c21 [Example 18]
12 | 13.4 | CCNCCCc1ccc2c(c1)c(=O)n(-c1ccc(C[C@H](NC(=O)c3c(Cl)cccc3Cl)C(=O)O)cc1)c(=O)n2C [Example 208]
13 | 15.7 | Cn1c(=O)n(-c2ccc(C[C@H](NC(=O)c3c(Cl)cccc3Cl)C(=O)O)cc2)c(=O)c2ncccc21 [Example 47, N-(2,6-dichlorobenzoyl)-4-[1-methyl-2,4-dioxo-1,2,3,4-tetrahydro-3-(2H)pyrido[3,2-d]pyrimidinyl]-L-phenylalanine]
14 | 23.5 | CCNc1ccc2c(=O)n(-c3ccc(C[C@H](NC(=O)c4c(Cl)cccc4Cl)C(=O)O)cc3)c(=O)n(C)c2c1 [Example 19]
15 | 17.9 | Cn1c(=O)n(-c2ccc(C[C@H](NC(=O)c3c(Cl)cccc3Cl)C(=O)O)cc2)c(=O)c2cc(CNC3CC3)ccc21 [Example 192]
16 | 14 | CN(C)CCN(C)c1ccc2c(c1)c(=O)n(-c1ccc(C[C@H](NC(=O)c3c(Cl)cccc3Cl)C(=O)O)cc1)c(=O)n2C [Example 4]
17 | 10.8 | CCN(CC)CCN(C)c1ccc2c(c1)c(=O)n(-c1ccc(C[C@H](NC(=O)c3c(Cl)cccc3Cl)C(=O)O)cc1)c(=O)n2C [Example 5]
18 | 7 | CCNCc1ccc2c(=O)n(-c3ccc(C[C@H](NC(=O)c4c(Cl)cccc4Cl)C(=O)O)cc3)c(=O)n(C)c2c1 [Example 143, N-(2,6-dichlorobenzoyl)-4-[7-ethylaminomethyl-1-methyl-2,4-quinazoline-dione-3-yl]-L-phenylalanine]
19 | 12.4 | Cn1c(=O)n(-c2ccc(C[C@H](NC(=O)c3c(Cl)cccc3Cl)C(=O)O)cc2)c(=O)c2cc(S(C)(=O)=O)ccc21 [Example 38, N-(2,6-dichlorobenzoyl)-4-[1-methyl-6-(methylsulfonyl)-2,4-quinazoline-dione-3-yl]-L-phenylalanine]

Row | IC50 [nM] | Compound
20 | 5.5 | CN(C)CCN(C)c1cc2c(cc1F)c(=O)n(-c1ccc(C[C@H](NC(=O)c3c(Cl)cccc3Cl)C(=O)O)cc1)c(=O)n2C [Example 13]
21 | 12.9 | Cn1c(=O)n(-c2ccc(C[C@H](NC(=O)c3c(Cl)cccc3Cl)C(=O)O)cc2)c(=O)c2cc(CN)ccc21 [Example 191]
22 | 6.5 | Cn1c(=O)n(-c2ccc(C[C@H](NC(=O)c3c(Cl)cccc3Cl)C(=O)O)cc2)c(=O)c2ccc(N3CCOCC3)cc21 [Example 39, N-(2,6-dichlorobenzoyl)-4-[1-methyl-7-(morpholine-4-yl)-2,4-quinazoline-dione-3-yl]-L-phenylalanine trifluoroacetate]
23 | 18.1 | CCCNCc1ccc2c(c1)c(=O)n(-c1ccc(C[C@H](NC(=O)c3c(Cl)cccc3Cl)C(=O)O)cc1)c(=O)n2C [Example 98]
24 | 16.5 | CCc1nccn1-c1cc2c(cc1F)c(=O)n(-c1ccc(C[C@H](NC(=O)c3c(Cl)cccc3Cl)C(=O)O)cc1)c(=O)n2C [Example 161]
25 | 5.7 | CCC(C)NCc1ccc2c(c1)c(=O)n(-c1ccc(C[C@H](NC(=O)c3c(Cl)cccc3Cl)C(=O)O)cc1)c(=O)n2C (some centres unmarked) [Example 198]
26 | 7.9 | CCN(CC)Cc1ccc2c(=O)n(-c3ccc(C[C@H](NC(=O)c4c(Cl)cccc4Cl)C(=O)O)cc3)c(=O)n(C)c2c1 [Example 146, N-(2,6-dichlorobenzoyl)-4-[1-methyl-7-diethylaminomethyl-2,4-quinazoline-dione-3-yl]-L-phenylalanine]
27 | 14.7 | CN(C)CCOc1ccc2c(c1)c(=O)n(-c1ccc(C[C@H](NC(=O)c3c(Cl)cccc3Cl)C(=O)O)cc1)c(=O)n2C [Example 142, N-(2,6-dichlorobenzoyl)-4-[6-(2-dimethylaminoethoxy)-1-methyl-2,4-quinazoline-dione-3-yl]-L-phenylalanine]
28 | 15.5 | COCCNc1ccc2c(c1)c(=O)n(-c1ccc(C[C@H](NC(=O)c3c(Cl)cccc3Cl)C(=O)O)cc1)c(=O)n2C [Example 10]
29 | 12.2 | N-(2,6-dichlorobenzoyl)-4-[6-((2S)-2-aminopropoxy)-1-methyl-2,4-quinazoline-dione-3-yl]-L-phenylalanine isopropylester [Example 141]
30 | 25.5 | Cn1c(=O)n(-c2ccc(C[C@H](NC(=O)c3c(Cl)cccc3Cl)C(=O)O)cc2)c(=O)c2cc(CO)ccc21 [Example 60]
31 | 6.3 | Cn1c(=O)n(-c2ccc(C[C@H](NC(=O)c3c(Cl)cccc3Cl)C(=O)O)cc2)c(=O)c2cc(CNCC3CC3)ccc21 [Example 197]
32 | 14.7 | CNCCc1cc2c(=O)n(-c3ccc(C[C@H](NC(=O)c4c(Cl)cccc4Cl)C(=O)O)cc3)c(=O)n(C)c2cc1F [Example 229, N-(2,6-dichlorobenzoyl)-4-{7-fluoro-1-methyl-6-[2-(methylamino)ethyl]-2,4-dioxo-1,2,3,4-tetrahydroquinazoline-3(2H)-yl}-L-phenylalanine]
33 | 4.9 | CNCc1ccc2c(=O)n(-c3ccc(C[C@H](NC(=O)c4c(Cl)cccc4Cl)C(=O)O)cc3)c(=O)n(C)c2c1 [Example 144, N-(2,6-dichlorobenzoyl)-4-[7-methylaminomethyl-1-methyl-2,4-quinazoline-dione-3-yl]-L-phenylalanine]
34 | 7.9 | Cn1c(=O)n(-c2ccc(C[C@H](NC(=O)c3c(Cl)cccc3Cl)C(=O)O)cc2)c(=O)c2ccc(CN3CCCC3)cc21 [Example 35, N-(2,6-dichlorobenzoyl)-4-[1-methyl-7-(pyrrolidine-1-ylmethyl)-2,4-quinazoline-dione-3-yl]-L-phenylalanine trifluoroacetate]
35 | 15.4 | Cn1c(=O)n(-c2ccc(C[C@H](NC(=O)c3c(Cl)cccc3Cl)C(=O)O)cc2)c(=O)c2cc(C(N)=O)ccc21 [Example 50]
36 | 10.8 | COCc1ccc2c(=O)n(-c3ccc(C[C@H](NC(=O)c4c(Cl)cccc4Cl)C(=O)O)cc3)c(=O)n(C)c2c1 [Example 63]
37 | 14.2 | CCN(CC)Cc1ccc2c(c1)c(=O)n(-c1ccc(C[C@H](NC(=O)c3c(Cl)cccc3Cl)C(=O)O)cc1)c(=O)n2C [Example 55]
38 | 15.2 | CCCNCCCc1ccc2c(c1)c(=O)n(-c1ccc(C[C@H](NC(=O)c3c(Cl)cccc3Cl)C(=O)O)cc1)c(=O)n2C [Example 209]
